Earlier results on five molecules are cited in patent US12042505B2, “Compositions and methods for treating dry eye” (priority 2021, dated 2024).

SMILES strings stand for the structures.

The conditions of the data set: for side effects: background statement on marketed drug.

With `CC1OC2(CS1)CN1CCC2CC1` (stereo not shown) [Cevimeline], the side effects entry is reported as “bladder pain, nausea, vomiting, diarrhea, sweating, rash, headache, runny nose, drowsiness, hot flashes, blurred vision, difficulty sleeping”.
Turning to `CN(C)C(=O)Oc1ccc[n+](C)c1` [Pyridostigmine], the side effects entry was “dizziness, drowsiness, lightheadedness, headache, nausea, vomiting, abdominal cramps/pain, diarrhea, increased salivation or urination, headache, slow heart rate followed by fast heart rate, and sweating”.
Turning to `CC(C[N+](C)(C)C)OC(N)=O` (stereo not shown) [Bethanechol], the side effects entry is “dizziness, drowsiness, lightheadedness, headache, nausea, vomiting, abdominal cramps/pain, diarrhea, increased salivation or urination, headache, slow heart rate followed by fast heart rate, and sweating”. For the same molecule, the hydrolysis by cholinesterase entry (background statement) was “not hydrolyzed by cholinesterase”.
As for `CC[C@@H]1C(=O)OC[C@@H]1Cc1cncn1C` [Pilocarpine], the side effects entry is “miosis, blurred vision, pupillary spasms; topically, it also results in burning and stinging”.
Turning to `C[N+](C)(C)CCOC(N)=O` [Carbachol], the side effects result is “miosis that can diminish ocular focus”. Further, the “absorption in the gastrointestinal tract” value (background statement) is recorded as “not well absorbed in the gastrointestinal tract”.
